Measured values taken from ChEMBL document CHEMBL1201862, “PubChem BioAssay data set” (2004).
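Protocol summary: plate cells (96-well), add compound at 5 concentrations, incubate 48 h, interpolate endpoints linearly. GI50 is the concentration that inhibits growth by half.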 Calls of active or inactive are those of the source. No stated cut-off is given here; in the data, active = GI50 up to about 1.1 µM and inactive = higher.

Tests used:
Assay in all cases: DTP human tumour cell line panel, 48 h
786-0 = test system: 786-0
IGROV-1 = test system: IGROV-1
OVCAR-3 = test system: OVCAR-3
Malme-3M = test system: Malme-3M
SNB-19 = test system: SNB-19
K562 = test system: K562
CAKI-1 = test system: CAKI-1
OVCAR-8 = test system: OVCAR-8
UO-31 = test system: UO-31
OVCAR-5 = test system: OVCAR-5
SF-295 = test system: SF-295
RPMI-8226 = test system: RPMI-8226
SNB-75 = test system: SNB-75
UACC-62 = test system: UACC-62
SF-539 = test system: SF-539
HCC 2998 = test system: HCC 2998
LOX IMVI = test system: LOX IMVI

Measured: GI50

Cc1ccc(C2=NN(C)COC2C(F)(F)F)cc1 (centres undefined)
inactive: 786-0 > 100 µM | IGROV-1 > 100 µM | OVCAR-3 > 100 µM | Malme-3M > 100 µM | SNB-19 > 100 µM | K562 > 100 µM | CAKI-1 > 100 µM | OVCAR-8 > 100 µM | UO-31 > 100 µM | OVCAR-5 > 100 µM | SF-295 > 100 µM | RPMI-8226 > 100 µM | SNB-75 21.2 µM | UACC-62 18.6 µM | SF-539 > 100 µM | HCC 2998 > 100 µM

COc1ccc(CC2(Cc3ccc(OC)cc3)CCOC2=O)cc1
inactive: 786-0 44 µM | IGROV-1 > 100 µM | OVCAR-3 > 100 µM | Malme-3M > 100 µM | SNB-19 > 100 µM | K562 > 100 µM | CAKI-1 67 µM | OVCAR-8 > 100 µM | UO-31 > 100 µM | OVCAR-5 > 100 µM | SF-295 60.1 µM | RPMI-8226 > 100 µM | SNB-75 14.7 µM | UACC-62 > 100 µM

CCOC(=O)/C(=C\c1ccc[nH]1)C(=O)c1ccccc1
inactive: 786-0 > 100 µM | OVCAR-3 > 100 µM | Malme-3M > 100 µM | SNB-19 > 100 µM | K562 35.2 µM | CAKI-1 > 100 µM | OVCAR-8 > 100 µM | UO-31 > 100 µM | OVCAR-5 > 100 µM | SF-295 > 100 µM | RPMI-8226 82 µM | LOX IMVI 91.2 µM | SNB-75 13.9 µM | UACC-62 67.6 µM | SF-539 > 100 µM | HCC 2998 > 100 µM

CCOC(=O)N1CCN(C=S)CC1
inactive: 786-0 > 100 µM | IGROV-1 > 100 µM | OVCAR-3 > 100 µM | Malme-3M > 100 µM | SNB-19 > 100 µM | K562 > 100 µM | OVCAR-8 > 100 µM | UO-31 > 100 µM | OVCAR-5 > 100 µM | LOX IMVI > 100 µM | SNB-75 > 100 µM | UACC-62 > 100 µM | SF-539 > 100 µM | HCC 2998 > 100 µM

O=S(=O)(c1ccccc1)C1(C2(S(=O)(=O)c3ccccc3)CCN=N2)CCN=N1 (centres undefined)
inactive: 786-0 > 100 µM | IGROV-1 > 100 µM | OVCAR-3 > 100 µM | Malme-3M > 100 µM | SNB-19 > 100 µM | K562 > 100 µM | CAKI-1 > 100 µM | OVCAR-8 > 100 µM | UO-31 > 100 µM | OVCAR-5 > 100 µM | SF-295 > 100 µM | RPMI-8226 > 100 µM | LOX IMVI > 100 µM | SNB-75 > 100 µM | SF-539 > 100 µM | HCC 2998 > 100 µM

O=C(/C=C/c1ccccc1Cl)c1ccc(Cl)cc1Cl
inactive: 786-0 16.6 µM | IGROV-1 14.5 µM | OVCAR-3 17.7 µM | Malme-3M 18.9 µM | SNB-19 15.5 µM | K562 3.02 µM | CAKI-1 14.4 µM | OVCAR-8 15.7 µM | UO-31 21.7 µM | OVCAR-5 17.1 µM | SF-295 19.3 µM | RPMI-8226 9.55 µM | SNB-75 18.7 µM | UACC-62 14.5 µM | SF-539 23 µM | HCC 2998 19.1 µM

Cc1cc2c(C)nn(Cc3ccccc3)c2c(C(N)=O)c1C
inactive: 786-0 > 100 µM | IGROV-1 > 100 µM | OVCAR-3 > 100 µM | Malme-3M > 100 µM | SNB-19 > 100 µM | K562 > 100 µM | OVCAR-8 > 100 µM | UO-31 67.9 µM | OVCAR-5 > 100 µM | SF-295 > 100 µM | RPMI-8226 > 100 µM | LOX IMVI > 100 µM | SNB-75 21.6 µM | UACC-62 > 100 µM | SF-539 > 100 µM | HCC 2998 > 100 µM

Clc1ncnc2c1ncn2CCCCCCCCCCCCn1cnc2c(Cl)ncnc21
inactive: 786-0 17.7 µM | IGROV-1 4.69 µM | OVCAR-3 11.2 µM | SNB-19 14.7 µM | K562 1.15 µM | CAKI-1 3.4 µM | OVCAR-8 11.1 µM | UO-31 13.1 µM | OVCAR-5 27.7 µM | SF-295 15.4 µM | RPMI-8226 2.13 µM | LOX IMVI 1.43 µM | UACC-62 13.9 µM | SF-539 14.4 µM | HCC 2998 6.7 µM

CC(C)(c1ccccc1)c1ccc(Oc2ccc(C#N)c(C#N)c2)cc1
inactive: 786-0 > 10 µM | IGROV-1 > 10 µM | OVCAR-3 > 10 µM | Malme-3M > 10 µM | SNB-19 34.6 µM | K562 15 µM | CAKI-1 > 10 µM | OVCAR-8 > 10 µM | UO-31 4.48 µM | OVCAR-5 > 10 µM | SF-295 4.47 µM | RPMI-8226 10.2 µM | LOX IMVI > 10 µM | SNB-75 > 10 µM | UACC-62 > 10 µM | SF-539 > 10 µM | HCC 2998 > 10 µM

Cc1ccc(/C=N/NS(=O)(=O)c2ccccc2)c(C)c1
inactive: 786-0 > 100 µM | IGROV-1 > 100 µM | OVCAR-3 > 100 µM | Malme-3M > 100 µM | K562 > 100 µM | CAKI-1 > 100 µM | OVCAR-8 > 100 µM | UO-31 > 100 µM | OVCAR-5 > 100 µM | SF-295 > 100 µM | RPMI-8226 > 100 µM | LOX IMVI > 100 µM | SNB-75 > 100 µM | UACC-62 > 100 µM | SF-539 > 100 µM | HCC 2998 > 100 µM

Cc1cc(C)nc(NS(=O)(=O)c2ccc(Nc3c4ccc(Cl)cc4nc4c(C(=O)Nc5ccc(S(=O)(=O)N=C(N)N)cc5)cccc34)cc2)n1
inactive: 786-0 > 100 µM | OVCAR-3 96.6 µM | Malme-3M 78.7 µM | SNB-19 > 100 µM | K562 73.5 µM | OVCAR-8 > 100 µM | UO-31 > 100 µM | OVCAR-5 > 100 µM | SF-295 > 100 µM | RPMI-8226 45.4 µM | LOX IMVI 49.9 µM | SNB-75 57.7 µM | UACC-62 70.8 µM | SF-539 > 100 µM | HCC 2998 > 100 µM

CC(C)(C)c1cc(C(OCCl)(C(F)(F)F)C(F)(F)F)c2c(c1)C(C(F)(F)F)(C(F)(F)F)OC21c2ccccc2C(=O)c2ccccc21
inactive: 786-0 > 100 µM | OVCAR-3 > 100 µM | Malme-3M > 100 µM | SNB-19 > 100 µM | K562 > 100 µM | CAKI-1 > 100 µM | OVCAR-8 > 100 µM | UO-31 > 100 µM | OVCAR-5 > 100 µM | SF-295 > 100 µM | RPMI-8226 > 100 µM | SNB-75 > 100 µM | SF-539 > 100 µM | HCC 2998 > 100 µM

C[N+](C)(C)CC(=O)N/N=C(/Cc1nc2c3c(ccc2nc1O)C(=O)c1ccccc1C3=O)C(=O)Nc1ccc(Cl)c(Cl)c1
inactive: 786-0 77.6 µM | IGROV-1 12.7 µM | OVCAR-3 30.2 µM | Malme-3M > 100 µM | K562 53.5 µM | CAKI-1 15.5 µM | OVCAR-8 50.5 µM | UO-31 6.84 µM | OVCAR-5 > 100 µM | SF-295 79.4 µM | RPMI-8226 17.4 µM | UACC-62 41.6 µM | SF-539 93.1 µM | HCC 2998 76.9 µM

C#CCNC(=O)ON1C(=O)CCC1=O
inactive: 786-0 > 100 µM | IGROV-1 > 100 µM | OVCAR-3 > 100 µM | Malme-3M > 100 µM | SNB-19 > 100 µM | K562 > 100 µM | OVCAR-8 > 100 µM | UO-31 > 100 µM | OVCAR-5 > 100 µM | SF-295 > 100 µM | RPMI-8226 > 100 µM | LOX IMVI > 100 µM | SNB-75 > 100 µM | UACC-62 > 100 µM | SF-539 > 100 µM

Cn1c(=O)oc2cc(C3CCC(=O)N3Cc3ccc(Cl)cc3)ccc21 (centres undefined)
inactive: 786-0 > 100 µM | IGROV-1 > 100 µM | Malme-3M > 100 µM | SNB-19 > 100 µM | K562 > 100 µM | CAKI-1 > 100 µM | OVCAR-8 > 100 µM | UO-31 > 100 µM | OVCAR-5 > 100 µM | SF-295 > 100 µM | RPMI-8226 > 100 µM | LOX IMVI > 100 µM | SNB-75 47.9 µM | UACC-62 > 100 µM | SF-539 > 100 µM | HCC 2998 > 100 µM

COc1cc2c(cc1OC)NC(=O)NC(Cc1ccc3c(c1)OCO3)CC2 (centres undefined)
inactive: 786-0 > 100 µM | IGROV-1 > 100 µM | OVCAR-3 > 100 µM | Malme-3M > 100 µM | SNB-19 > 100 µM | K562 > 100 µM | CAKI-1 > 100 µM | OVCAR-8 > 100 µM | UO-31 76.9 µM | OVCAR-5 > 100 µM | SF-295 84.5 µM | RPMI-8226 83.9 µM | LOX IMVI > 100 µM | SNB-75 24 µM | UACC-62 > 100 µM | HCC 2998 > 100 µM

[N-]=[N+]=N[C@H]1C[C@@H](CO)O[C@H]1n1cnc2c(N)ncnc21
inactive: 786-0 > 100 µM | OVCAR-3 > 100 µM | Malme-3M > 100 µM | SNB-19 > 100 µM | CAKI-1 > 100 µM | OVCAR-8 > 100 µM | UO-31 > 100 µM | OVCAR-5 > 100 µM | SF-295 > 100 µM | LOX IMVI > 100 µM | SNB-75 > 100 µM | SF-539 > 100 µM | HCC 2998 > 100 µM

O=C(Cc1nc2ccccc2c(=O)n1-c1c(Cl)cccc1Cl)c1ccncc1
inactive: 786-0 24.6 µM | IGROV-1 22.4 µM | OVCAR-3 21.3 µM | Malme-3M 24.7 µM | SNB-19 31.4 µM | K562 26.7 µM | CAKI-1 23.6 µM | OVCAR-8 29.7 µM | UO-31 13.3 µM | SF-295 18 µM | LOX IMVI > 10 µM | SNB-75 25.1 µM | UACC-62 22.7 µM | SF-539 18.4 µM | HCC 2998 22.5 µM
